In BindingDB's records for PubMed 28813519 (Erasmus University Medical Center):

What was measured:
[1] = Inhibition of BRD4 in mouse MPNST cells assessed as reduction in cell viability incubated for 72 hrs by SRB assay
[2] = Inhibition of BRD4 in mouse primary skin-derived precursors (Nf1-/-, P53-/-) assessed as reduction in cell viability incubated for 72 hrs by SRB assay

Cc1sc2c(c1C)C(c1ccc(Cl)cc1)=N[C@@H](CC(=O)OC(C)(C)C)c1nnc(C)n1-2
IC50 [1]: < 0.4 µM | IC50 [2]: < 0.4 µM
